Active and inactive are the calls of the source.
Tests used:
Streptococcus = experiment: Group A Streptococcus viability loss, dose response, counter-screen for streptokinase expression inhibitor project, luminescence, BacTiterGlo (AID 1915); assay type: functional, organism-based;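 note: potency for reduction of bacterial viability or growth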
Streptokinase A = target: T1, Streptokinase A (Streptococcus pyogenes serotype M1, UniProt P10520); experiment: S. pyogenes streptokinase expression inhibitors, potency, dose response, plasminogen activation absorbance, OD405 (AID 1914); assay type: functional, Streptococcus pyogenes M1 GAS;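 note: secreted streptokinase activity via plasminogen activation per viability signal from cell pellet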
T1 sequence (P10520 whole entry): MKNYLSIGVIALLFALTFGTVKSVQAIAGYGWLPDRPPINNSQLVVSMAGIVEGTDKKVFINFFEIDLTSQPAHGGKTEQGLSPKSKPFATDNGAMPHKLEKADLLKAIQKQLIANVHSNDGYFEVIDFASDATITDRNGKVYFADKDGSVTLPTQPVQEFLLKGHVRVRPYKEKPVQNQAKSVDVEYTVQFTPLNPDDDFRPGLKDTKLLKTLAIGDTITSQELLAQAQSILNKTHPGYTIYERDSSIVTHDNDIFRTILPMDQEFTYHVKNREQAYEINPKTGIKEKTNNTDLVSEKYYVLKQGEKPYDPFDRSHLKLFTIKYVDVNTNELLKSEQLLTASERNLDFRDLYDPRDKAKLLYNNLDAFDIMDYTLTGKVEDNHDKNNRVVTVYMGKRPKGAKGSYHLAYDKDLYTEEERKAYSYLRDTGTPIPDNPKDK

[1] = system: Streptococcus sp. 'group A'; experiment: growth inhibition of control SK(-) GAS strain, dose response, counter-screen for streptokinase expression inhibitor project, luminescence, kanamycin, BacTiterGlo, confirmation (AID 1900); assay type: functional, organism-based
Cytochrome P450 3A4 = Cytochrome P450 3A4 (Homo sapiens, UniProt P08684);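 note: CYP3A4 tested as one member of a cytochrome P450 panel screen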
Cytochrome P450 2C19 = Cytochrome P450 2C19 (Homo sapiens, UniProt P33261); experiment: Cytochrome panel assay with activity outcomes. Panel member name: p450-cyp2c19 Compounds with AC50 equal or less than 10 uM are considered active; assay type: functional; details: read-out: AC50
Cytochrome P450 2C9 = Cytochrome P450 2C9 (Homo sapiens, UniProt P11712)
Cytochrome P450 2D6 = Cytochrome P450 2D6 (Homo sapiens, UniProt P10635);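 note: CYP2D6 member of a cytochrome P450 panel assay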
[2] = target: T2, Rac GTPase-activating protein 1 (Homo sapiens, UniProt Q9H0H5); experiment: MgcRacGAP GTPase-activating activity inhibitors, confirmation, biochemical, ADP Hunter fluorescence, primary and confirmatory (AID 624330); assay type: functional
T2 sequence (Q9H0H5 whole entry): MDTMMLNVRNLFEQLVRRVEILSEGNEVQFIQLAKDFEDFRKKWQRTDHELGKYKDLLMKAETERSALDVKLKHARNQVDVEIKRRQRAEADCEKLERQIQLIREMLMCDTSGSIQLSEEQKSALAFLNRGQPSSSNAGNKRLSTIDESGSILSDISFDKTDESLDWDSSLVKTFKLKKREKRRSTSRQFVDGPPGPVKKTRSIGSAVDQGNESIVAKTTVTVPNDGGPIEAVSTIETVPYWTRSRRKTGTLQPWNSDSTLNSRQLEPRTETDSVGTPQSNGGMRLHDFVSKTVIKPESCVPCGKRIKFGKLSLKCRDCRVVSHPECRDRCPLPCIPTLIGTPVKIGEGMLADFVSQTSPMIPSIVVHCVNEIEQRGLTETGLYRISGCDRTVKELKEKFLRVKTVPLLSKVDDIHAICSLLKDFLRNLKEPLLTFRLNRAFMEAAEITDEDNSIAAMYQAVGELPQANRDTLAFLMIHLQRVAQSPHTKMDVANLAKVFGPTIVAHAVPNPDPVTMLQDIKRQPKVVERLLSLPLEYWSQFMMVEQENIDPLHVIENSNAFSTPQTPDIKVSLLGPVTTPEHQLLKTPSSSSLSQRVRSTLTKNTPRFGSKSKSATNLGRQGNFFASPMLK

[3] = inhibitors of intracellular T. cruzi replication, confirmation, NIH3T3 host cells, beta-gal luminescence (AID 2044); assay type: functional, cell-based;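 note: intracellular parasites grown in NIH/3T3 mouse fibroblasts as host cells; luminescent beta-galactosidase reporter signal from transgenic T. cruzi replicating inside host cells; inhibitors lower the luminescence signal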
[4] = cytotoxicity toward NIH3T3 fibroblasts, dose response, counter-screen, cell-based, ATP luminescence, mouse fibroblasts (AID 2010); assay type: functional;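 note: cells exposed to compound for about 90 hours before reading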
INS1 = experiment: beta cell apoptosis inhibitors, cytokine rescue, dose response, luminescence, retest (AID 449756); assay type: functional, cell-based; details: Rattus norvegicus;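 note: cell death triggered by IL-1 beta plus TNF-alpha plus IFN-gamma mixture; protective hits raise ATP signal compared with cytokine alone wells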

Chain of Cytochrome P450 2C9 (P11712 whole entry): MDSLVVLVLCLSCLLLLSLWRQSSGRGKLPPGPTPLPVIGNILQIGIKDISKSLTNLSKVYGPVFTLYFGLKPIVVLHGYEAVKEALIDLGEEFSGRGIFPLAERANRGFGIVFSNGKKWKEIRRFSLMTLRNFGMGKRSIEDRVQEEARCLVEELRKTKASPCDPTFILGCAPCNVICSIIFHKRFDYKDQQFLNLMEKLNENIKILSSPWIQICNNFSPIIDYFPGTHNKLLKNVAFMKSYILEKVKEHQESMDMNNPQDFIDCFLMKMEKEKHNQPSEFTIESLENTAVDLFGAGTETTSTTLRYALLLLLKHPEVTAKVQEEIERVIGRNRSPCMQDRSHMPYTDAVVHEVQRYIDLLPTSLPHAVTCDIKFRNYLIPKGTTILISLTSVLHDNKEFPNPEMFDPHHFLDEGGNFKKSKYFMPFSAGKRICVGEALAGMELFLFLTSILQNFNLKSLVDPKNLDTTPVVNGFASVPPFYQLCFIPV
Chain of Cytochrome P450 2C19 (P33261 whole entry): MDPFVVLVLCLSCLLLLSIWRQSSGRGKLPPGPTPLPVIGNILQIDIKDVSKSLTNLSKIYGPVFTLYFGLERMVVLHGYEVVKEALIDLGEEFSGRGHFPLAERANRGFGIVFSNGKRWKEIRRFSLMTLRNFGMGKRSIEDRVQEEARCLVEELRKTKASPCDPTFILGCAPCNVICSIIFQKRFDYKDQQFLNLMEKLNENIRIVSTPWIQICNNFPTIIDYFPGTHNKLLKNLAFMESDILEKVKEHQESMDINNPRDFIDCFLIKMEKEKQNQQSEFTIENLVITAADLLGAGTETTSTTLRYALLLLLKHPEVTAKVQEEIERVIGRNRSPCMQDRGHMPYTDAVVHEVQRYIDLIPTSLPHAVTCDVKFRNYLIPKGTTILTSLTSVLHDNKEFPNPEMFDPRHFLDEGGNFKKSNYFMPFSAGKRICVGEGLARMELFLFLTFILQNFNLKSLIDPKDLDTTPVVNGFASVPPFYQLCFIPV
Chain of Cytochrome P450 3A4 (P08684 whole entry): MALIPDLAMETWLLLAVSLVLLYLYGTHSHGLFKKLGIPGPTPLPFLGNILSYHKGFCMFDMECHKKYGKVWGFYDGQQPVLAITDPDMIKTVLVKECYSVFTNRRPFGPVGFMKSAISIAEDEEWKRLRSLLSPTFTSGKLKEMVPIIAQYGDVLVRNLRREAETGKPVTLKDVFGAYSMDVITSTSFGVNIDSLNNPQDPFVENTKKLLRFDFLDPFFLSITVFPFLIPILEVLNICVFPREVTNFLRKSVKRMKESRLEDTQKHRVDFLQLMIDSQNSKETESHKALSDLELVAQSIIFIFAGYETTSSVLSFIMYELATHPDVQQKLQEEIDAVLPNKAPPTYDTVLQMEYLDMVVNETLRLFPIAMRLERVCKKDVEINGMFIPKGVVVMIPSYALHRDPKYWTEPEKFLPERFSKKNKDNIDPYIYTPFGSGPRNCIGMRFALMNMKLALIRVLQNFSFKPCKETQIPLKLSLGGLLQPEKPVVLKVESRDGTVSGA
Chain of Cytochrome P450 2D6 (P10635 whole entry): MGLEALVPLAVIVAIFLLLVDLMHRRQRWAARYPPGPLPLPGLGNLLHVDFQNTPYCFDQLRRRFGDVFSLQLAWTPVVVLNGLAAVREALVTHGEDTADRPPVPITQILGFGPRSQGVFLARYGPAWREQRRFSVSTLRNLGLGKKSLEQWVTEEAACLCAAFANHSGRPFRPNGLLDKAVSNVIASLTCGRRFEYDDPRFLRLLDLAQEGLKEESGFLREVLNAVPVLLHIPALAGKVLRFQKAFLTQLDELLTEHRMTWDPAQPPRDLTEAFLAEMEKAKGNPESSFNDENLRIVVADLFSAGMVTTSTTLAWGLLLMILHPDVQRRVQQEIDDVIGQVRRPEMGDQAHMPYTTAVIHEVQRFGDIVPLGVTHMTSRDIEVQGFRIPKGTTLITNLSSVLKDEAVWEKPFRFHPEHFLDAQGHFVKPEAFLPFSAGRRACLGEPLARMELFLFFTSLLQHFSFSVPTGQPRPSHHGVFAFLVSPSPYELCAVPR

## CCn1cc(CN2CCC(n3nccc3NC(=O)Cc3ccccc3)CC2)cn1
Streptococcus
  EC50: > 150 µM (not active)
Streptokinase A
  EC50: > 150 µM (not active)
[1]
  EC50: > 150 µM (not active)

## Cc1cc(C)c(S(=O)(=O)N2CCCCC2)c(C)c1N(C)S(=O)(=O)c1ccccc1
Cytochrome P450 3A4
  AC50: 1.12 µM (inconclusive)

## Cc1c(NC(=O)/C=C/C(=O)O)cccc1[N+](=O)[O-]
Cytochrome P450 2C19
  AC50: 15.8 µM (inconclusive)
Cytochrome P450 2C9
  AC50: 28.2 µM (inconclusive)

## Cc1noc(C)c1C(=O)Nc1ccc2ccccc2c1
Streptococcus
  EC50: > 150 µM (not active)
Streptokinase A
  EC50: > 150 µM (not active)
[1]
  EC50: > 150 µM (not active)

## c1ccc(-n2c3ccccc3c3ccccc32)cc1
Streptococcus
  EC50: > 150 µM (not active)
Streptokinase A
  EC50: > 150 µM (not active)
[1]
  EC50: 6.43 µM (active)

## O=C(NCC(=O)N(c1ccccc1)C(C(=O)NC1CCCC1)c1cccnc1)c1cccs1 (configuration not stated)
Cytochrome P450 2C19
  AC50: 15.8 µM (inconclusive)
Cytochrome P450 2C9
  AC50: 17.8 µM (inconclusive)

## CCN(CC)CCn1c(=S)[nH]c2cc3c(cc2c1=O)OCO3
Cytochrome P450 2C19
  AC50: 39.8 µM (inconclusive)
Cytochrome P450 3A4
  AC50: 14.1 µM (inconclusive)

## c1ccc(Nc2nc(-c3ccoc3)nc3ccccc23)cc1
Cytochrome P450 2D6
  AC50: 39.8 µM (inconclusive)
Cytochrome P450 2C19
  AC50: 31.6 µM (inconclusive)
Cytochrome P450 3A4
  AC50: 20 µM (inconclusive)

## CN1CCN(Cc2coc3c(Cl)cc(Cl)cc3c2=O)CC1
[2]
  IC50: 79 µM (active)

## O=C(NNC1=Nc2cccc3cccc1c23)c1ccc(Br)cc1
[3]
  EC50: 1.12 µM (active)
Streptococcus
  EC50: 10.6 µM (active)
Streptokinase A
  EC50: > 150 µM (not active)
[4]
  EC50: 6.29 µM (active)
[1]
  EC50: 0.324 µM (active)

## CN(Cc1ccco1)c1nc(-c2cccc(C#N)c2)nc2ccccc12
Cytochrome P450 2C9
  AC50: 1 µM (inconclusive)

## COc1ccc(S(=O)(=O)Nc2ccc3oc(C)c(C(C)=O)c3c2)cc1
INS1
  AC50: 6.13 µM (active)

## Cc1cccc(C)c1NC(=O)C(c1ccccc1)N1CCC1=O (configuration not stated)
Cytochrome P450 2C19
  AC50: 20 µM (inconclusive)
Cytochrome P450 3A4
  AC50: 25.1 µM (inconclusive)

## COc1ccc(Nc2ccc3ccccc3c2)cc1
[2]
  IC50: 53.4 µM (active)

## Cc1ccc(OCC(O)CNC(=O)c2ccccc2C(=O)O)cc1 (configuration not stated)
Cytochrome P450 2C9
  AC50: 0.00562 µM (inconclusive)

## O=C(CCCc1nc(-c2ccc(Cl)cc2)no1)NC1CCCC1
INS1
  AC50: 10.2 µM (active)

## O=C(O)C1CCCCC1C(=O)Nc1ccc(S(=O)(=O)N2CCOCC2)cc1 (configuration not stated)
[2]
  IC50: 150 µM (active)

## Cc1ccc(CNC(=O)C2CCC(=O)N2C2CCCCC2)cc1 (configuration not stated)
Cytochrome P450 2C9
  AC50: 7.08 µM (inconclusive)

## O=C1NC(=S)NC1=Cc1ccc(O)cc1
[2]
  IC50: 9.78 µM (active)

## CCCN1CCc2cc(O)cc3c2[C@H]1Cc1ccc(O)c(O)c1-3
Cytochrome P450 2D6
  AC50: 15.8 µM (inconclusive)
Cytochrome P450 2C9
  AC50: 39.8 µM (inconclusive)

## C/N=C\c1cc(-c2ccccc2)sc1O
[2]
  IC50: 199 µM (active)

## Oc1oc(-c2ccccc2)nc1/C=N/c1ccccc1
Cytochrome P450 3A4
  AC50: 25.1 µM (inconclusive)

## Cc1cccc(CNc2ncnc3ccc(-c4ccc(C(=O)N(C)C)cc4)cc23)c1
Cytochrome P450 2D6
  AC50: 25.1 µM (inconclusive)
Cytochrome P450 2C19
  AC50: 39.8 µM (inconclusive)
Cytochrome P450 2C9
  AC50: 0.794 µM (inconclusive)
